Laboratory results taken from patent US9943499B2, “Lipase inhibitors for the treatment of pancreatitis and organ failure” (priority 2011, dated 2018).
Entries after “also recorded” stand apart in the source; their conditions may differ. Where two headings read alike, the source gives them in different places.

Assays:
acinar cells = assay type: cell-based; conditions: for prevention of linoleic acid induced LDH leakage: 300 μM LA, 30 μM BAPTA or 1 mM EGTA, 90 minutes and 3 hours
From the text: Harvesting cells: Primary acinar cells from wild type mice (C57B6) were harvested and used as described previously. Viability, confirmed by trypan blue exclusion, was >95%. […] These were used in the individual experiments. Data presented is representative of 3 or more experiments.
Acinar culture: Acinar culture was done as described previously to study inflammatory mediator upregulation.
Calcium imaging: Acinar cells loaded with fura-2AM as described previously on 35-mm glass bottom culture dishes (MatTek corporation, Ashland, Mass.) were imaged on temperature-controlled motorized stage of an Olympus IX81 inverted microscope (Olympus America Inc, Melville, N.Y.) with a 20×0.70 NA objective and a QImaging Retiga EXi CCD camera (QImaging, Burnaby, Canada). Baseline images were taken, and cells with extremely bright or dim fluorescence were omitted. Fatty acids (linolenic, linoleic, oleic, stearic, and palmitic, 100-1200 μM final concentration) were added, and cytosolic calcium levels [Cai] were determined by alternate excitation at 340 nm and 380 nm, measuring emission at 510 nm. […] Image acquisition was with the MetaMorph 7.5 Imaging System (Molecular Devices, Downington, Pa.) using the MetaMorph 6.3 software. The 340/380 emission ratio were averaged for 7-25 acini per field, with background subtraction. Data presented is a mean from separate experiments.
Visceral fat triglyceride composition: The visceral fat triglyceride composition analysis was done at Kennedy Krieger Institute (Baltimore, Md.). Briefly, total lipids were extracted by the method of Folch. The total lipids were weighed and then separated into 4 fractions by column chromatography on silicic acid. The second fraction has the mono-, di- and triglycerides, the non-esterified fatty acids, and ceramides; 400 micrograms of the second fraction was taken and purified, and non-esterified acids, triglycerides, and diglycerides were collected by thin-layer chromatography on Silica Gel G plates. The fatty acids were derivatized and analyzed by GCMS as their pentafluorbenzylbromide esters. ATP levels, cytochrome C release, and % LDH leakage were measured as previously described. Apoptosis was measured by active caspase-3 [western blotting, activity assays (Enzcheck, Invitrogen, Carlsbad, Calif.)], TUNEL assays, and Hoechst dye nuclear incorporation (8 mg/ml Hoechst 33342 added for 15 minutes after treatment). […] Results were reported as % of cells with given nuclear changes. These were counter stained with PI (1 μM) to stain necrotic cells (FIG. 7A, B, C) and imaged with a Zeiss Meta dual fluorescence confocal microscope. PI-positive cells were counted as late apoptosis or necrosis. […] Autophagy was studied by western blotting for LC3-I and II. RNA was extracted using Trizol (Invitrogen, Carlsbad, Calif.). mRNA levels of TNF-α, CXCL1, and CXCL2 were measured as described previously using real time-PCR performed on an ABI Prism 7000 Sequence Detection System (Applied Biosystems, Foster City, Calif.) on proprietary Taqman Gene Expression assay reagents (Applied Biosystems). Mitochondrial complex assays and citrate synthase assay were done as described previously.

Male Wistar rats = experiment: Intraductal infusion of glyceryl trilinoleate (GTL) pancreatitis; assay type: in vivo; conditions: for mortality: intraductal GTL alone, GTL+orlistat 75 mg/ml, GTL+cetilistat 25 mg/ml, followed to day 5; for gross pancreatic appearance: hemorrhages and necrosis: intraductal GTL with or without lipase inhibitor
Experimental: Experiments were performed using a model, the technique of which is established and well described in rats (1, 2, 4, 7). This involves infusion of agents into the pancreatic duct to cause acute pancreatitis (1, 2, 4, 7). We will refer to this technique as “intraductal infusion”. We compared the severity of pancreatic damage and survival of rats after intraductal infusion of Glyceryl trilinoleate with and without the lipase inhibitor orlistat. In addition, we used a different lipase inhibitor-cetilistat (3, 6), and studied its efficacy in improving survival of rats in intraductal infusion pancreatitis induced with Glyceryl trilinoleate (GTL).
Male Wistar rats (250-350 gm), were anesthetized. Intraductal infusion of 0.1 ml (n=5) or 0.2 ml (n=5) of GTL (Sigma-Aldrich corporation) alone or GTL+orlistat (Caymen chemical, Ann Arbor, Mich.) (75 mg/ml, 0.1 ml n=5 or 0.2 ml n=5) or GTL+cetilistat (Jinan Wedo Industrial Co., Ltd., Jinan City, Shandong China) (25 mg/ml, 0.2 ml, n=10) was done as described previously (1, 2, 4, 7). All animals were given pain control (buprenorphine 200 mcg/kg BID), Cefazolin (100 mg/kg), and 10 cc saline subcutaneously BID as per the IACUC protocol. These were followed for survival.

[1] = in combination with GTL, at necropsy

For O=C(O)CN(CC(=O)O)c1ccccc1OCCOc1ccccc1N(CC(=O)O)CC(=O)O [BAPTA], the “prevention of linoleic acid induced LDH leakage” value (acinar cells) was “partially prevented”.

In the case of O=C(O)CN(CCOCCOCCN(CC(=O)O)CC(=O)O)CC(=O)O [EGTA], the “prevention of linoleic acid induced LDH leakage” value (acinar cells) is reported as “ineffective”, the LDH leakage (acinar cells; 300 μM linoleic acid, EGTA 1 mM, 90 minute) is reported as 21.2±8.3% and the LDH leakage (acinar cells; 300 μM linoleic acid, EGTA 1 mM, 3 hour) is reported as 54.6±6.4%.

In the case of CCCCC/C=C\C/C=C\CCCCCCCC(=O)OCC(COC(=O)CCCCCCC/C=C\C/C=C\CCCCC)OC(=O)CCCCCCC/C=C\C/C=C\CCCCC [GTL, glyceryl trilinoleate], the mortality (Male Wistar rats; dead/total) is reported as 10/10, the first day mortality (Male Wistar rats; dead/total, intraductal GTL without further treatment) is reported as 10/10 and the “gross pancreatic appearance: hemorrhages and necrosis” value (Male Wistar rats) is reported as “caused severe hemorrhages, and near total necrosis of the gland within 24 hours”.

CCCCCCCCCCCCCCCCOc1nc2ccc(C)cc2c(=O)o1 [cetilistat] was tested, and the mortality (Male Wistar rats; dead/total) was 2/10, the “lung injury (TUNEL positive nuclei)” value (Male Wistar rats; [1]) was “nearly completely prevented” and the “renal injury (TUNEL positive nuclei)” value (Male Wistar rats; [1]) was “nearly completely prevented; also recorded: absence of staining TUNEL positive nuclei”. The “lung injury (TUNEL positive nuclei)” value (Male Wistar rats; in combination with GTL, at necropsy, listed as Cetilistat) was “absence of TUNEL positive nuclei” and the “gross pancreatic appearance: hemorrhages and necrosis” value (Male Wistar rats) was “prevented the hemorrhages and necrosis up to 5 days”.

For CCCCC/C=C\C/C=C\CCCCCCCC(=O)O [linoleic acid], the “acinar mRNA levels of TNF-α, CXCL1 and CXCL2” value (acinar cells; 200 μM fatty acid (sub-lethal)) was “increased” and the “autophagy (LC3-II) and apoptosis (active caspase3)” value (acinar cells; 300 μM linoleic acid) was “not activated”.

C/C=C(/C)C(=O)O[C@H]1C(C)=C2[C@H]([C@@H]1OC(=O)CCCCCCC)[C@@](C)(OC(C)=O)C[C@H](OC(=O)CCC)[C@@]1(O)[C@H]2OC(=O)[C@@]1(C)O [thapsigargin] was tested, and the “600 μM LA induced intra-acinar calcium (Cai) increase” value (acinar cells; 1 μM thapsigargin, EGTA 1 mM) was “prevents”.
